Results: patent publication US20130331266A1, “METHOD FOR CONTROLLING WEEDS IN PADDY RICE CULTIVATION” (SUMITOMO CHEMICAL COMPANY, LIMITED, priority 2011, published 2013)

Assays:
Assay type in all cases: in vivo
Echinochloa oryzicola [1] = assay: Pot test Example 3: herbicidal effect on Echinochloa oryzicola, spray on drained soil then flooding; details: score 0-100, 25 g/ha, 4th leaf stage, evaluated 2 weeks after application
Description: (§1) In Examples of the method of the present invention, a criterion for evaluating a herbicidal effect is as follows.
A 1/10000-are pot was filled with a paddy field soil, and then water was added thereto followed by soil puddling. After draining, a pre-germinated Echinochloa oryzicola was sown, and then grown in a glasshouse. Sixteen (16) days after the sowing when Echinochloa oryzicola had the 4th leaves, each water-diluted solution containing 112 ppm of Compound 2 or Compound 3 was applied by spraying on the surface of the pot with a sprayer so that each amount of Compound 2 and Compound 3 as listed in Table 3 was applied. Each water-diluted solution of Compound 2 and Compound 3 was prepared by dissolving a given amount of Compound 2 or Compound 3 in acetone containing 2% (w/v) of Tween 20, followed by diluting the resulting solution with water so that the concentration of acetone was 10% by volume. When applying the water-diluted solution, the soil was well drained. The pot was flooded with water to a depth of 5 cm on the day of the application of the herbicide, the next day of the application of the herbicide, 3 days after the application of the herbicide, or 7 days after the application of the herbicide. And then, the plant was grown in the glasshouse.
Two (2) weeks after the application of the herbicide, the herbicidal effect on Echinochloa oryzicola was evaluated.

Leptochloa chinenisis = assay: Pot test Example 5: herbicidal effect on Leptochloa chinenisis, spray at 0.5 cm water then flooding; details: score 0-100, 100 g/ha, second or third leaf stage, evaluated 2 weeks after application
Description: as §1
A 1/10000-are Wagner pot was filled with a paddy field soil, and then water was added thereto followed by soil puddling. After draining, a pre-germinated Leptochloa chinenisis was sown, and then grown in a glasshouse. Sixteen (16) days after the sowing when Leptochloa chinenisis had the second or third leaves, each water-diluted solution containing 50 ppm of Compound 1, Compound 2, or Compound 3 was applied by spraying on the surface of the pot with a sprayer so that each amount of Compound 1, Compound 2, and Compound 3 as listed in Table 4 was applied. When applying the water-diluted solution, the pot was flooded to a depth of 0.5 cm. The pot was flooded with water to a depth of 4 cm or 2 cm on the next day of the application of the herbicide or 5 days after the application of the herbicide. And then, the plant was grown in the glasshouse.
Two (2) weeks after the application of the herbicide, the herbicidal effect on Leptochloa chinenisis was evaluated.

Echinochloa oryzicola [2] = assay: Pot test Example 1: herbicidal effect on Echinochloa oryzicola, spray on drained soil then flooding; details: score 0-100, 30 g/ha, 4th leaf stage, evaluated 4 weeks after application
Description: as §1
(§2) A 1/5000-are Wagner pot was filled with a paddy field soil, and then water was added thereto followed by soil puddling. After draining, a pre-germinated Echinochloa oryzicola was sown, and then grown in a glasshouse. Fourteen (14) days after the sowing when Echinochloa oryzicola had the 4th leaves, a water-diluted solution (134 ppm of Compound 1) of a flowable containing 10% Compound 1 was applied by spraying on the surface of the pot with a sprayer so that the amount of Compound 1 as listed in Table 1 was applied. When applying the water-diluted solution, the soil was well drained. The pot was flooded with water to a depth of 5 cm on the day of the application of the herbicide, the next day of the application of the herbicide, or 3 days after the application of the herbicide. And then, the plant was grown in the glasshouse. Four (4) weeks after the application of the herbicide, the herbicidal effect on Echinochloa oryzicola was evaluated.

Echinochloa oryzicola [3] = assay: Pot test Example 2: herbicidal effect on Echinochloa oryzicola, spray on drained soil then flooding; details: score 0-100, 25 g/ha, 4th leaf stage, evaluated 4 weeks after application
Description: as §1
as §2, with “A 1/10000-are” for “A 1/5000-are Wagner”, “glasshouse. Sixteen (16)” for “glasshouse. Fourteen (14)”, “solution (112” for “solution (134”, “1)” for “1) of”, “Table 2” for “Table 1”, “applying with” for “applying”

[4] = flooded to 5 cm 3 days after treatment
[5] = flooded to 5 cm 7 days after treatment
[6] = flooded to 5 cm on day of treatment
[7] = flooded to 5 cm on next day of treatment
[8] = flooded 5 days after treatment, depth 4 cm
[9] = flooded next day of treatment, depth 2 cm
[10] = flooded next day of treatment, depth 4 cm

| SMILES | Herbicidal effect on Echinochloa oryzicola (Echinochloa oryzicola [1]; [4]) | Herbicidal effect on Echinochloa oryzicola (Echinochloa oryzicola [1]; [5]) | Herbicidal effect on Echinochloa oryzicola (Echinochloa oryzicola [1]; [6]) | Herbicidal effect on Echinochloa oryzicola (Echinochloa oryzicola [1]; [7]) | Herbicidal effect on Leptochloa chinenisis (Leptochloa chinenisis; [8]) | Herbicidal effect on Leptochloa chinenisis (Leptochloa chinenisis; [9]) | Herbicidal effect on Leptochloa chinenisis (Leptochloa chinenisis; [10]) | Herbicidal effect on Echinochloa oryzicola (Echinochloa oryzicola [2]; [4]) | Herbicidal effect on Echinochloa oryzicola (Echinochloa oryzicola [2]; [6]) | Herbicidal effect on Echinochloa oryzicola (Echinochloa oryzicola [2]; [7]) | Herbicidal effect on Echinochloa oryzicola (Echinochloa oryzicola [3]; [4]) | Herbicidal effect on Echinochloa oryzicola (Echinochloa oryzicola [3]; [6]) | Herbicidal effect on Echinochloa oryzicola (Echinochloa oryzicola [3]; [7]) |
| --- | --- | --- | --- | --- | --- | --- | --- | --- | --- | --- | --- | --- | --- |
| COCc1cccc(C(O)c2nc(OC)cc(OC)n2)c1NS(=O)(=O)C(F)F (racemic) [Compound 2, (RS)-2′-[(4,6-Dimethoxypyrimidin-2-yl)(hydroxy)methyl]-1,1-difluoro-6′-(methoxymethyl)methanesulfonanilide] | 90 | 80 | 89 | 92 | 80 | 80 | 90 |  |  |  |  |  |  |
| COc1cc(OC)nc(NC(=O)NS(=O)(=O)c2c(C3=NOCC(C)O3)c(Cl)nn2C)n1 (racemic) [Compound 3, 1-{3-Chloro-1-methyl-4-[(5RS)-5,6-dihydro-5-methyl-1,4,2-dioxazin-3-yl]pyrazol-5-ylsulfonyl}-3-(4,6-dimethoxypyrimidin-2-yl)urea] | 75 | 75 | 83 | 83 | 60 |  | 90 |  |  |  |  |  |  |
| CCCc1ccc2nc(Cl)c(S(=O)(=O)NC(=O)Nc3nc(OC)cc(OC)n3)n2n1 [Compound 1, 1-(2-Chloro-6-propylimidazo[1,2-b]pyridazin-3-ylsulfonyl)-3-(4,6-dimethoxypyrimidin-2-yl)urea] |  |  |  |  | 75 | 75 | 90 | 90 | 96 | 97 | 85 | 88 | 93 |
